Assay results reported in US6608082B1, “Treatment of erectile dysfunction using isoquinoline compound melanocortin receptor ligands” (Lion Bioscience AG, priority 1998, dated 2003).
Read-outs that look alike come from different tables or passages of the source.

Experiments:
MCR-4 = molecular target: T1, MCR-4 (Homo sapiens, UniProt P32245); assay: Melanocortin receptor binding assay, competition with 125I-HP 467, HEK 293 cells expressing hMCR-4; settings: read-out: MC-4 IC50
T1 construct: expressed in transfected cells; host or cells: HEK 293
T1 sequence (P32245 whole entry): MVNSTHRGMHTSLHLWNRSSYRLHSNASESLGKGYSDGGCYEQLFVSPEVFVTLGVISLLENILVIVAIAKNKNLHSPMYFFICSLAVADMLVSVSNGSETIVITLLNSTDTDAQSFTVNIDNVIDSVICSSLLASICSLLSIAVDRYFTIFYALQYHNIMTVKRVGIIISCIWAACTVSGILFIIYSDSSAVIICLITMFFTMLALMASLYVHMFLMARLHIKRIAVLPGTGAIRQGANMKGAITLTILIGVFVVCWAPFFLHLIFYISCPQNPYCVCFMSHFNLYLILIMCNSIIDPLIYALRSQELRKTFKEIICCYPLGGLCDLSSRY
Outline: (§1)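 Test compounds compete on intact HEK 293 cells carrying hMCR-1 (2×10^4 per tube) or hMCR-4 (4×10^3 per tube), suspended in PBS, 10% calf serum, 1 mM CaCl2.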

MCR-1 = molecular target: T2, MCR-1 (Homo sapiens, UniProt Q01726); assay: Melanocortin receptor binding assay, competition with 125I-HP 467, HEK 293 cells expressing hMCR-1; settings: for IC50: read-out: MC-1 IC50
T2 construct: expressed in transfected cells; host or cells: HEK 293
T2 sequence (Q01726 whole entry): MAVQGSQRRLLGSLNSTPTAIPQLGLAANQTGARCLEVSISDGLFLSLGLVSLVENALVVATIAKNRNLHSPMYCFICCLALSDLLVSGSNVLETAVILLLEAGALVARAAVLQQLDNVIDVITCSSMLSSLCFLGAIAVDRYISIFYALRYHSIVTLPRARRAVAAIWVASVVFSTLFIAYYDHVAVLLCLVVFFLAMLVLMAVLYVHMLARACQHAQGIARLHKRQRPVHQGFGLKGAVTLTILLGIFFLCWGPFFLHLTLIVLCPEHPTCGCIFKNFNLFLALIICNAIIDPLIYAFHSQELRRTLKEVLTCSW
Outline: as §1

[1] = TRG 2408 and TRG 2409 libraries, inhibition of 125I-HP 467 binding
[2] = competition with 125I-HP 467, HEK 293 cells expressing MCR-4
[3] = competition with 125I-HP 467, HEK 293 cells expressing MCR-1

| Compound | IC50 (MCR-4; [1]) [µM] | IC50 (MCR-1; [1]) [µM] | IC50 (MCR-4; [2]) [µM] | IC50 (MCR-1; [3]) [µM] | effectiveness as MC receptor ligand (MCR-1; binding to MC receptors, Table 1) |
| --- | --- | --- | --- | --- | --- |
| NCC(CCCN1Cc2ccccc2C(CNC2CCCCC2)C1c1ccc(-c2ccccc2)cc1)NCCc1ccccc1 (stereo not drawn) [TRG 2408-82] | 16.4 | 10.2 |  |  |  |
| NCCNC(CN)CCCN1Cc2ccccc2C(CNC2CCCCC2)C1c1ccc(-c2ccccc2)cc1 (stereo not drawn) [TRG 2408-83] | 11.1 | 1.77 |  |  |  |
| CNCCNC(CN)CCCN1Cc2ccccc2C(CNC2CCCCC2)C1c1ccc(-c2ccccc2)cc1 (stereo not drawn) [TRG 2408-84] | 15.4 | 2.5 |  |  |  |
| CCNc1ccc(C2C(CNCc3ccccc3OC)c3ccccc3CN2CCC(CN)NCCN)cc1 (stereo not drawn) [TRG 2408-89] | 21.7 | 1.82 |  |  |  |
| CCNc1ccc(C2C(CNC3CCCCC3)c3ccccc3CN2CC[C@@H](CN)NC)cc1 (stereo partly drawn) [TRG 2408-90] | 25.2 | 5.9 |  |  |  |
| CCNc1ccc(C2C(CNC3CCCCC3)c3ccccc3CN2CCC(N)CN)cc1 (stereo not drawn) [TRG 2408-91] | 28.1 | 9.94 |  |  |  |
| CCNc1ccc(C2C(CNC3CCCCC3)c3ccccc3CN2CCC(CN)NCCc2ccccc2)cc1 (stereo not drawn) [TRG 2408-92] | 1.54 | 4.51 |  |  |  |
| CCNc1ccc(C2C(CNC3CCCCC3)c3ccccc3CN2CCC(CN)NCCN)cc1 (stereo not drawn) [TRG 2408-93] | 16.3 | 4.01 |  |  |  |
| CCNc1ccc(C2C(CNC3CCCCC3)c3ccccc3CN2CCC(CN)NCCNC)cc1 (stereo not drawn) [TRG 2408-94] | 27.1 | 3.89 |  |  |  |
| CNC(CN)CCN1Cc2ccccc2C(CNC2CCCCC2)C1c1ccc(Cl)cc1Cl (stereo not drawn) [TRG 2408-100] | 6.1 | 6.98 |  |  |  |
| NCC(N)CCN1Cc2ccccc2C(CNC2CCCCC2)C1c1ccc(Cl)cc1Cl (stereo not drawn) [TRG 2408-101] | 5.68 | 7.89 |  |  |  |
| NCCNC(CN)CCN1Cc2ccccc2C(CNC2CCCCC2)C1c1ccc(Cl)cc1Cl (stereo not drawn) [TRG 2408-103] | 8.8 | 5.41 |  |  |  |
| CNCCNC(CN)CCN1Cc2ccccc2C(CNC2CCCCC2)C1c1ccc(Cl)cc1Cl (stereo not drawn) [TRG 2408-104] | 9.06 | 5.65 |  |  |  |
| CNC(CN)CCN1Cc2ccccc2C(CNC2CCCCC2)C1c1ccc(-c2ccccc2)cc1 (stereo not drawn) [TRG 2408-110] | 9.01 | 5.37 |  |  |  |
| NCC(CCN1Cc2ccccc2C(CNC2CCCCC2)C1c1ccc(-c2ccccc2)cc1)NCCc1ccccc1 (stereo not drawn) [TRG 2408-112] | 10.4 | 8.79 |  |  |  |
| NCCNC(CN)CCN1Cc2ccccc2C(CNC2CCCCC2)C1c1ccc(-c2ccccc2)cc1 (stereo not drawn) [TRG 2408-113] | 12.7 | 3.78 |  |  |  |
| CNC(CN)CCCCN1Cc2ccccc2C(CNC2CCCCC2)C1c1ccc(NCc2ccccc2)cc1 (stereo not drawn) [TRG 2409-13] |  |  | 17.4 | 1.15 |  |
| CNC(CN)CCCCN1Cc2ccccc2C(CNC2CCCCC2)C1c1ccc(NCC2CCCCC2)cc1 (stereo not drawn) [TRG 2409-15] |  |  | 16.2 | 1.65 |  |
| CNC(CN)CCCCN1Cc2ccccc2C(CNC2CCCCC2)C1c1ccc(NCC(C)C)cc1 (stereo not drawn) [TRG 2409-16] |  |  | 21 | 0.95 |  |
| CNC(CN)CCCCN1Cc2ccccc2C(CNC2CCCCC2)C1c1ccc(NCCOC)cc1 (stereo not drawn) [TRG 2409-17] |  |  | 27.5 | 2.72 |  |
| CNC(CN)CCCCN1Cc2ccccc2C(CNC2CCCCC2)C1c1ccc(NCc2ccc(OC)cc2)cc1 (stereo not drawn) [TRG 2409-18] |  |  | 16.9 | 7.51 |  |
| CNC(CN)CCCCN1Cc2ccccc2C(CNC2CCCCC2)C1c1ccc(NCCc2ccccc2)cc1 (stereo not drawn) [TRG 2409-19] |  |  | 15.5 | 2.08 |  |
| CCCNc1ccc(C2C(CNC3CCCCC3)c3ccccc3CN2CCCCC(CN)NC)cc1 (stereo not drawn) [TRG 2409-20] |  |  | 19.8 | 0.88 |  |
| CNC(CN)CCCCN1Cc2ccccc2C(CNC2CCCCC2)C1c1ccc(NCCc2ccc(OC)cc2)cc1 (stereo not drawn) [TRG 2409-21] |  |  | 14.7 | 2.63 |  |
| CNC(CN)CCCCN1Cc2ccccc2C(CNC2CCCCC2)C1c1ccc(NCCC2CC3CCC2C3)cc1 (stereo not drawn) [TRG 2409-22] |  |  | 12.3 | 1.53 |  |
| CNC(CN)CCCCN1Cc2ccccc2C(CNC2CCCCC2)C1c1ccc(NCCc2ccc(Cl)c(Cl)c2)cc1 (stereo not drawn) [TRG 2409-23] |  |  | 19.6 | 4.77 |  |

| Compound | IC50 (MCR-4; [1]) [µM] | IC50 (MCR-1; [1]) [µM] | IC50 (MCR-4; [2]) [µM] | IC50 (MCR-1; [3]) [µM] | effectiveness as MC receptor ligand (MCR-1; binding to MC receptors, Table 1) |
| --- | --- | --- | --- | --- | --- |
| CNC(CN)CCCCN1Cc2ccccc2C(CNC2CCCCC2)C1c1ccc(NCc2ccc(Cl)cc2)cc1 (stereo not drawn) [TRG 2409-24] |  |  | 12.2 | 3.95 |  |
| CCCCNc1ccc(C2C(CN)c3ccccc3CN2CCCC(CN)NCCc2ccccc2)cc1 (stereo not drawn) [TRG 2409-221] |  |  | 0.85 | 0.08 |  |
| CCCCNc1ccc(C2C(CN)c3ccccc3CN2CCCC(CN)NCCc2ccc(OC)cc2)cc1 (stereo not drawn) [TRG 2409-223] |  |  | 0.63 | 0.1 |  |
| CCCCNc1ccc(C2C(CN)c3ccccc3CN2CCCC(CN)NCc2ccccc2)cc1 (stereo not drawn) [TRG 2409-224] |  |  | 1.32 | 0.12 |  |
| CCCCNc1ccc(C2C(CN)c3ccccc3CN2CCCC(CN)NCc2ccc(Cl)cc2)cc1 (stereo not drawn) [TRG 2409-225] |  |  | 1.12 | 0.12 |  |
| NCC(N)CCCCN1Cc2ccccc2C(CNCCc2ccccc2)C1c1ccc(-c2ccccc2)cc1 (stereo not drawn) [TRG 2411-1] |  |  | 1.22 | 0.6 |  |
| NCC(CCCCN1Cc2ccccc2C(CNCCc2ccccc2)C1c1ccc(-c2ccccc2)cc1)N1CCCC1 (stereo not drawn) [TRG 2411-9] |  |  | 1.27 | 0.13 |  |
| CCCCNC(CN)CCCCN1Cc2ccccc2C(CNCCc2ccccc2)C1c1ccc(-c2ccccc2)cc1 (stereo not drawn) [TRG 2411-11] |  |  | 1.8 | 0.83 |  |
| CCCCNC(CN)CCCCN1Cc2ccccc2C(CNC2CCCCC2)C1c1ccc(-c2ccccc2)cc1 (stereo not drawn) [TRG 2411-20] |  |  | 0.77 | 0.61 |  |
| NCC(CCCCN1Cc2ccccc2C(CNC2CCCCC2)C1c1ccc(-c2ccccc2)cc1)NCC1CCCCC1 (stereo not drawn) [TRG 2411-21] |  |  | 1.01 | 0.27 |  |
| NCC(CCCCN1Cc2ccccc2C(CNC2CCCCC2)C1c1ccc(-c2ccccc2)cc1)NCc1ccccc1 (stereo not drawn) [TRG 2411-22] |  |  | 1.73 | 0.42 |  |
| CNCCNC(CN)CCCCN1Cc2ccccc2C(CN)C1c1ccc(-c2ccccc2)cc1 (stereo not drawn) [TRG 2411-26] |  |  | 6.17 | 0.09 | particularly effective MC receptor ligands |
| NCC(CCCCN1Cc2ccccc2C(CN)C1c1ccc(-c2ccccc2)cc1)NCCO (stereo not drawn) [TRG 2411-29] |  |  | 1.42 | 0.3 |  |
| CNC(CNC(CN)CCCCN1Cc2ccccc2C(CN)C1c1ccc(-c2ccccc2)cc1)Cc1ccccc1 (stereo not drawn) [TRG 2411-30] |  |  | 1.33 | 0.3 |  |
| CCCCNC(CN)CCCCN1Cc2ccccc2C(CN)C1c1ccc(-c2ccccc2)cc1 (stereo not drawn) [TRG 2411-33] |  |  | 1.73 | 0.39 |  |
| CCCCNC(CN)CCCCN1Cc2ccccc2C(CNCCc2ccccc2)C1c1ccc(NCC)cc1 (stereo not drawn) [TRG 2411-38] |  |  | 1.33 | 0.09 |  |
| CCNc1ccc(C2C(CNCCc3ccccc3)c3ccccc3CN2CCCCC(CN)NCCc2ccccc2)cc1 (stereo not drawn) [TRG 2411-40] |  |  | 1 | 0.19 |  |
| CCNc1ccc(C2C(CNCCc3ccccc3)c3ccccc3CN2CCCC[C@@H](CN)NCCc2ccc(OC)cc2)cc1 (stereo partly drawn) [TRG 2411-42] |  |  | 1.56 | 0.32 |  |
| CCNc1ccc(C2C(CNCCc3ccccc3)c3ccccc3CN2CCCCC(CN)NCc2ccccc2)cc1 (stereo not drawn) [TRG 2411-43] |  |  | 1.03 | 0.19 |  |
| CCNc1ccc(C2C(CNCCc3ccccc3)c3ccccc3CN2CCCCC(CN)NCc2ccc(OC)cc2)cc1 (stereo not drawn) [TRG 2411-45] |  |  | 0.84 | 0.12 |  |
| CCNc1ccc(C2C(CNCCc3ccccc3)c3ccccc3CN2CCCCC(CN)NCCc2ccc3ccccc3c2)cc1 (stereo not drawn) [TRG 2411-46] |  |  | 1.33 | 0.89 |  |
| CCNc1ccc(C2C(CNC3CCCCC3)c3ccccc3CN2CCCCC(CN)NCCc2ccc(Br)cc2)cc1 (stereo not drawn) [TRG 2411-52] |  |  | 0.86 | 0.55 |  |
| CCNc1ccc(C2C(CNC3CCCCC3)c3ccccc3CN2CCCCC(CN)NCCc2ccc(OC)cc2)cc1 (stereo not drawn) [TRG 2411-53] |  |  | 1.65 | 0.28 |  |
| CCNc1ccc(C2C(CNC3CCCCC3)c3ccccc3CN2CCCCC(CN)NCc2ccccc2)cc1 (stereo not drawn) [TRG 2411-54] |  |  | 1.79 | 0.13 |  |
| CCNc1ccc(C2C(CNC3CCCCC3)c3ccccc3CN2CCCCC(CN)NCc2ccc(Cl)cc2)cc1 (stereo not drawn) [TRG 2411-55] |  |  | 2.05 | 0.09 |  |
| CCNc1ccc(C2C(CNC3CCCCC3)c3ccccc3CN2CCCCC(CN)NCCc2ccc3ccccc3c2)cc1 (stereo not drawn) [TRG 2411-57] |  |  | 1.19 | 0.92 |  |
